Results published in patent US5641762A, “Bone targeted inhibitors of carbonic anhydrase” (Research Corporation Technologies, Inc., priority 1994, dated 1997).
In brackets after ≈: the same amount, converted by molar mass. Read-outs that look alike come from different tables or passages of the source. One block for each molecule: values may come before it.

Legend:
carbonic anhydrase = assay: Carbonic anhydrase inhibition (modified micromethod, CO2/bicarbonate colour change time); format: biochemical; settings: for Potency as CA inhibitor: relative to acetazolamide = 100, Table 5; for carbonic anhydrase inhibition: before hydrolysis, final assay concentration 5×10^-6 M (FIG. 2)
Experimental: B--Carbonic Anhydrase Inhibition
A modification of the micromethod of Maven, J. Pharmacol. Exp. Ther. 130: 26-29 (1960) was used to assess carbonic anhydrase activity and inhibition. In essence, a bicarbonate solution was incubated at 0° C. in a vessel which was constantly bubbled with CO2. A pH indicator (phensulfophthalein) was included. The dependent variable was the amount of time required to achieve color change (addition of bicarbonate is defined as time zero). Addition of carbonic anhydase decreased reaction time. Further addition of enzyme inhibitors extended reaction time back to control values.
All are tested before and after being subjected to hydrolyric conditions with the final assay concentration being 5×10^-6 M. For these experiments, the dependent variable was the amount of time required for acidification of a CO2 /bicarbonate buffer system to a defined endpoint. […] Finally, test drugs were added to enzyme-containing reaction mixtures, and any increase in reaction time was indicative of enzyme inhibition.

physchem = settings: for chromatographic logP: reverse phase hplc lc-18-db, pH 2
Experimental: Chromatographic characterization was accomplished using hydroxyapetite (HA) chromatography, silica gel thin layer chromatography and high performance reverse phase liquid chromatography (HPLC) with the following characteristics:
Column: LC-18-DB (Supelco)/25 cm/5 um particles.
Mobile phase: 9% tetrahydrofuran/9% CH3 CN/1% CH3 OH/81% 5 mM sodium phosphate, pH=2
Detection: UV-visible absorbance 210-500 nm (photo-diode array scanning)
This mode of analysis served simultaneously as a qualitative analytic procedure (full UV-vis spectrum) as well as providing a quantitative estimate of drug concentration.
Chromatographic data was obtained using the HPLC system described.

[1] = Binding to hydroxyapatite; settings: for bound to hydroxyapatite: 10^-5 M, 30 minute incubation (FIG. 1)
Experimental: A--Binding to Hydroxyapatite
For these studies, 10^-5 M aqueous solutions of the various test agents were added to a slurry of hydroxyapatite (HA), the principle mineral constituent of bone. After a 30 minute incubation, HA was separated by centrifugation and treated with 1.0M phosphate buffer (pH=7) or 2.0M phosphate buffer (pH=7). Percentage of total drug bound and eluted was determined using UV-visible spectrophotometry.
1. Binding to hydroxyapatite.

Solubility pH 7.6 = format: physicochemical
[2] = pH 7.6
[3] = tested on: rat calvaria (PTH-stimulated calcium release); assay: In vitro bone organ culture, PTH-stimulated calcium release from calvaria; format: cell-based; settings: for PTH-stimulated calcium release from calvaria: 10^-5 M (FIG. 3)
Experimental: Essentially, fetal or neonatal rat calvaria were excised and cultured in serum supplemented BGJb medium (GIBCO) containing HEPES buffer (hydroxyethylpiperazine-ethanesulfonate), penicillin and streptomycin. Bone samples were individually incubated in sterile multi-well plates at 37° C./100% relative humidity/95:5 air:CO2. If appropriate, bone may be radiolabeled by injection of mothers with ^45 CACl2 or pups with tritiated proline.
1. In vitro inhibition of bone resorption. Rat calvaria were cultured as described. Some cultures include the addition of parathyroid hormone (PTH) in the presence and absence of test compounds (10^-5 M).

[4] = tested on: PTH-induced bone resorption; assay: In vivo Induced Secondary Hyperparathyroid Rat (ISHR); settings: for Blood Calcium: i.p. 24 h before nephrectomy, bled 4 h post nephrectomy, control 12.2 ± 0.4, prenephrectomy 10.1 ± 0.3, ** P ≤ 0.05, preliminary; for effect on developing hypercalcemia: given 24 hours prior to nephrectomy
Experimental: 1. The Induced Secondary Hyperparathyroid Rat
In order to test the biological activity of these substances, test compounds were injected intraperitoneally into 100 gram female rats. Twenty-four hours later the animals were subjected to bilateral nephrectomy. Animals were bled 4 hours post nephrectomy. […] The resulting decline in the concentration of ionized calcium in the blood served as a stimulus for the release of PTH. In animals with functional parathyroid glands, a secondary hyperparathyroidism developed with an ensuing hypercalcemia due to PTH-induced bone resorption. Agents which inhibited bone resorption attenuate this hypercalcemic response.

[5] = kidney intact animals; cited from earlier work
[6] = cited from earlier work; for acidosis: systemic / metabolic acidosis
[7] = tested on: PTH-induced resorption of bone in culture; settings: cited from earlier work
[8] = tested on: PTH-induced bone resorption; settings: literature (Waite et al. 1970); cited from earlier work
[9] = tested on: response to PTH (plasma calcium); settings: ISHR without parathyroids; cited from earlier work
[10] = tested on: PTH-stimulated calcium release from bone; assay: In vivo classical endocrine ablation/replacement model (PTH given to parathyroidectomized rats); parameters: species or system rat; settings: PTH group
Experimental: Parathyroid hormone was administered to parathyroidectomized rats who received no food for 12 hours before PTH injection, to minimize gut calcium absorption. In an attempt to attenuate the developing increase in plasma calcium, drug was administered 24 hours prior to PTH injection.
Parathyroid hormone was administered to parathyroidectomized rats who had received no food for 12 hours before PTH injection, to minimize gut calcium absorption.

- Ki (carbonic anhydrase; read-out: KI as carbonic anhydrase inhibitor): 120 nM
Molecule: NS(=O)(=O)c1nnc(NC(=O)CCC(=O)NCCCCCC(O)(P(=O)(O)O)P(=O)(O)O)s1 [PAA]
- water solubility relative to parent thiadiazolesulfonamide (physchem): more water soluble than the parent thiadiazolesulfonamide

- % Bound to Hydroxyapatite [1]: 0%
- Potency as CA inhibitor (carbonic anhydrase): 20%
- chromatographic logP (physchem): -0.409
- solubility (Solubility pH 7.6): 28.4 mM (≈ 5120 µg/mL)
- ether:buffer partition coefficient [2]: 0.15
Molecule: Nc1nnc(S(N)(=O)=O)s1 [WP-061786, 2-amino-1,3,4-thiadiazole-5-sulfonamide]

Molecule: CCOC(=O)CCCCC(=O)NS(=O)(=O)c1nnc(NC(C)=O)s1 [AAOEt, acetazolamide-adipate-ethyl ester]
- bound to hydroxyapatite [1]: 3%
- carbonic anhydrase inhibition after hydrolytic conditions (carbonic anhydrase; following incubation under hydrolytic conditions, 5×10^-6 M (FIG. 2)): inhibited carbonic anhydrase activity
- lipophilicity relative to parent compounds (physchem; HPLC): more lipophilic than is its parent, acetazolamide
- chromatographic logP (physchem): 0.238

Molecule: CC(=O)Nc1nnc(S(N)(=O)=O)s1 [acetazolamide]
- bound to hydroxyapatite [1]: 19%
- carbonic anhydrase inhibition (carbonic anhydrase): inhibits carbonic anhydrase activity
- Potency as CA inhibitor (carbonic anhydrase): 100%
- PTH-stimulated calcium release from calvaria [3]: inhibited
- Blood Calcium ([4]; 0.2 mol/kg as printed): 12.6 ± 0.2 mg/dL
- effect on developing hypercalcemia [4]: not effective
- solubility (Solubility pH 7.6): 6.7 mM (≈ 1490 µg/mL)
- half-life [5]: approximately 50 minutes
- change in plasma calcium concentration ([6]; normal animals): no change in plasma calcium concentration is observed
- acidosis [6]: causes a systemic acidosis
- acidosis ([6]; listed as Acetazolamide): produces a metabolic acidosis
- inhibition of PTH-induced resorption ([7]; tissue culture (Minkin and Jennings)): inhibition of PTH-induced resorption
- inhibition of the increase in total plasma calcium in ISHR [8]: completely inhibits this response
- inhibition of response to administered PTH [9]: abolish it

Molecule: CN(C)C1C(=O)C(C(N)=O)=C(O)C2(O)C(=O)C3=C(O)c4c(O)cccc4C(C)(O)C3CC12 (stereo not shown) [tetracycline]
- bound to hydroxyapatite [1]: 90%
- % Bound to Hydroxyapatite ([1]; Table 6): 85%
- binding to / elution from hydroxyapatite ([1]; result in words, sodium phosphate buffer, pH 7): eluted with 1.0M sodium phosphate
- carbonic anhydrase inhibition (carbonic anhydrase): without effect
- PTH-stimulated calcium release from calvaria [3]: without effect
- effect on developing hypercalcemia [4]: does not appear to be effective
- Blood Calcium [4]: 11.8 ± 0.4 mg/dL
- inhibition of PTH in vitro ([7]; at high concentrations): typically inhibits PTH in vitro

Molecule: CN(C)C1C(=O)C(C(N)=O)=C(O)C2(O)C(=O)C3=C(O)c4c(OC(CO)COC(=O)Oc5ccc6nc(S(N)(=O)=O)sc6c5)cccc4C(C)(O)C3CC12 (stereo not shown) [TAE-2]
- PTH-stimulated bone resorption / calcium release ([3]; calvaria in culture (FIGS. 8-10)): attenuates PTH stimulated calcium release from calvaria in culture (FIG. 9) in a concentration dependent fashion

B1: PTH: parathyroid hormone (protein, UniProt P01270 32-115, looked up)
Parathyroid hormone: SVSEIQLMHNLGKHLNSMERVEWLRKKLQDVHNFVALGAPLAPRDAGSQRPRKKEDNVLVESHEKSLGEADKADVNVLTKAKSQ
modifications: Parathyroid hormone
- net release of calcium from cultured bone ([3]; treatment with PTH): significant stimulation
- Blood Calcium, Before PTH [10]: 5.2 ± 0.3 mg/dL
- Blood Calcium, 6 hours post-treatment ([10]; control 5.5 ± 0.2, ** p < 0.05 vs control): 7.2 ± 0.2 mg/dL
